The text below walks through data of PubChem BioAssay AID743478 (Broad Institute, 2014).

Several values for one entry are separate records, joined by “and”; a condition that tells them apart may be missing. Identical values can stand only once. Activity calls are given as the source filed them.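 Rule for the calls: active = fitted curve falls past -35% activity change at a dose below twice the highest valid tested dose; inconclusive = no clear call, values can overlap the other calls; inactive = the rest, including activity opposite to the expected decrease.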 Bounds are passed on as bounds.

The subject of test [1] is A673 viability, CellTiter-Glo ATP luminescence, 72 h. Put plainly: killing of EWS/Fli1-dependent A673 cells, confirmation, cell-based, luminescence, retest at dose, dry powder (AID 743478).
Assay in test [2]: as above
The note with it: A673 viability, CellTiter-Glo ATP luminescence, 72 h. In general terms: In ATP-based viability assays light output follows the ATP content of the culture.

Regarding `CC[C@@]1(O)C(=O)OCc2c1cc1n(c2=O)Cc2cc3c(CN(C)C)c(O)ccc3nc2-1`, the AC35 in test [1] is 16.6 nM. In the case of `CCC(C)C(=O)OC1CC(C)C=C2C=CC(C)C(CCC(O)CC(O)CC(=O)O)C21` (configuration not stated), the AC35 in test [1] is 25200 nM.

Turning to `COc1ccc(S(=O)(=O)N2CC[C@@H]3[C@@H](CO)Nc4ccc(-c5cccc(C#N)c5)cc4[C@@H]32)cc1`, the AC35 in test [1] is 3950 nM. As to `N#CC1=C(N)Oc2ccc3ccccc3c2C1c1cccc(F)c1` (configuration not stated), in test [1], the AC35 was 526 nM. With `Cn1cc(-c2ccncc2)c(-c2ccc(OCc3ccc4ccccc4n3)cc2)n1`, the AC35 in test [1] is 21300 nM.

Take `COc1ccccc1-c1nnc2n1N=C(c1ccc3c(c1)OCO3)CS2`: the AC35 in test [1] was 16.4 nM. For `COc1ccccc1C1C(C#N)=C(N)Oc2cc(N)ccc21` (configuration not stated), in test [2] (at 26 µM (top of the series)), the activity change, negative = cytotoxicity was -4.28% (inactive).

Take `COc1ccc(S(=O)(=O)N(C(C)=O)c2ccc(OC(C)=O)c3ccccc23)cc1[N+](=O)[O-]`: the AC35 in test [1] is 460 nM. For `CCc1c2c(nc3ccc(O)cc13)-c1cc3c(c(=O)n1C2)COC(=O)C3(O)CC` (configuration not stated), in test [1], the AC35 was 2 nM. As to `Cc1c([C@H](C(Cl)Cl)[C@H](O)[C@H]2C[C@H](C)C(=O)O2)ccc2c1C(=O)[C@H]1[C@H]2C[C@@H](Br)[C@@]23O[C@@H](CO[C@H]2O)C[C@]13C`, the AC35 in test [1] was less than 50 nM.

Turning to `N#CC1=C(N)Oc2cc(N)ccc2C1c1cccc(F)c1` (configuration not stated), the AC35 in test [1] is 907 nM. Still for that read-out and setting: next, `COc1cc([C@@H]2c3cc4c(cc3[C@@H](O[C@@H]3O[C@@H]5CO[C@@H](C)O[C@H]5[C@H](O)[C@H]3O)[C@H]3COC(=O)[C@H]23)OCO4)cc(OC)c1O`: 751 nM.

On to `CN1CCN(CCOc2cc(OC3CCOCC3)c3c(Nc4c(Cl)ccc5c4OCO5)ncnc3c2)CC1`, for which, in test [1], the AC35 is 22000 nM. Regarding `Cc1ccc(C2C(C#N)=C(N)Oc3cc(N)ccc32)cc1` (configuration not stated), the activity change, negative = cytotoxicity in test [2] (at 26 µM (top of the series)) is -0.754% (inactive). As for `COc1ccc(C2=Nn3c(nnc3-c3ccccc3Cl)SC2)cc1OC`, in test [1], the AC35 was 392 nM. With `Clc1ccccc1-c1nnc2n1N=C(c1ccc3c(c1)OCO3)CS2`, the AC35 in test [1] was 408 nM. As to `N#Cc1ccc(-c2ccc3c(c2)[C@H]2[C@H](CCN2S(=O)(=O)c2cccc(F)c2)[C@@H](CO)N3)cc1`, the AC35 in test [1] is 5430 nM.

Turning to `CN1c2ccc(-c3ccc(C#N)cc3)cc2[C@H]2[C@H](CCN2S(=O)(=O)c2ccc(F)cc2)[C@H]1CO`, the activity change, negative = cytotoxicity in test [2] (at 26 µM (top of the series)) is -15.2% (inactive). For `COc1ccccc1S(=O)(=O)N1CC[C@@H]2[C@@H](CO)Nc3ccc(-c4ccc(C#N)cc4)cc3[C@@H]21`, the AC35 in test [1] is 11600 nM. As for `N#CC1=C(N)Oc2cc(N)ccc2C1c1ccc(Cl)cc1` (configuration not stated), the activity change, negative = cytotoxicity in test [2] (at 26 µM (top of the series)) was 0.262% (inactive). As to `Cc1ccc(S(=O)(=O)N2CC[C@@H]3[C@@H](CO)Nc4ccc(-c5ccc(C#N)cc5)cc4[C@@H]32)cc1`, the AC35 in test [1] was 19800 nM. `O=C(Nc1c(Cl)cncc1Cl)c1ccc(OC(F)F)c(OCC2CC2)c1`: the activity change, negative = cytotoxicity in test [2] (at 26 µM (top of the series)) is 7.47% (inactive). Take `O=P1(NCCCl)OCCCN1CCCl` (configuration not stated): the activity change, negative = cytotoxicity in test [2] (at 50 µM (top of the series)) was 0.494% (inactive).

Turning to `C[C@]1(c2nc3c(C(N)=O)cccc3[nH]2)CCCN1`, in test [2] (at 26 µM (top of the series)), the activity change, negative = cytotoxicity is -26% (inactive). Consider `O=C(Cc1ccc(-c2ccc(OCCN3CCOCC3)cc2)cn1)NCc1ccccc1`, for which the AC35 in test [1] was less than 23.5 nM. As for `COc1ccc(CNc2nc(N3CCC[C@H]3CO)ncc2C(=O)NCc2ncccn2)cc1Cl`, the activity change, negative = cytotoxicity in test [2] (at 26 µM (top of the series)) is 0.28% (inactive). For `COc1ccc(-c2cc(NC=O)c3ncc(-c4ccc(OC)c(OC)c4)n3c2)cc1`, the AC35 in test [1] is 545 nM. On the same count and under the same terms, next, `N#CC1=C(N)Oc2cc3c(cc2C1c1cccc(Br)c1)OCO3` (configuration not stated): 28.8 nM; `CCCCc1ccc2nc(NC(=O)OC)[nH]c2c1`: less than 50 nM. As to `COc1cccc(S(=O)(=O)N2CC[C@@H]3[C@@H](CO)Nc4ccc(-c5ccc(C#N)cc5)cc4[C@@H]32)c1`, in test [1], the AC35 was 21400 nM. Turning to `COc1ccc(-c2ccc3c(c2)[C@H]2[C@H](CCN2S(=O)(=O)c2ccc(OC)cc2)[C@@H](CO)N3)cc1`, the AC35 in test [1] is 3950 nM. With `Cc1nc(Nc2ncc(C(=O)Nc3c(C)cccc3Cl)s2)cc(N2CCN(CCO)CC2)n1`, the AC35 in test [1] is 5450 nM.

In the case of `C[C@@]1(C(=O)Nc2ccc(F)nc2)CCCN1c1nc(Nc2cc(C3CC3)[nH]n2)c2cccn2n1`, the AC35 in test [1] is 296 nM. Regarding `C=C([C@@H](O)[C@@H](C)O)[C@@H](OC)[C@]1(C)Cc2cc3cc(O[C@H]4CC(OC5CC(O)C(O)C(C)O5)C(O)C(C)O4)cc(O)c3c(O)c2C(=O)[C@H]1OC1CC(OC2CC(OC3CC(C)(O)C(O)C(C)O3)C(O)C(C)O2)C(O)C(C)O1` (some centres not stated), the AC35 in test [1] is 36.8 nM. For the compound `COc1ccc(C2=Nn3c(nnc3-c3ccccc3OC)SC2)cc1OC`, the AC35 in test [1] was 55.6 nM. Take `Cc1ccc([N+](=O)[O-])cc1S(=O)(=O)N(C)C`: the AC35 in test [1] is 3970 nM.

As for `Nc1ccn([C@@H]2O[C@H](CO)[C@H](O)C2O)c(=O)n1` (some centres not stated), the AC35 in test [1] is 66 nM. The same measure, in the same setting: the value for `COc1ccc(OC)c(-c2nnc3n2N=C(c2ccc(OC)c(OC)c2)CS3)c1` was < 23.5 nM and 16.3 nM; that for `CN1c2ccc(-c3ccc(C#N)cc3)cc2[C@H]2[C@H](CCN2S(=O)(=O)c2cccc(F)c2)[C@H]1CO` was 3650 nM. Turning to `N#CC1=C(N)Oc2cc(N)ccc2C1c1ccccc1` (configuration not stated), in test [1], the AC35 was 12200 nM.

For the compound `N#CC1=C(N)Oc2cc(OC(=O)c3ccccc3)ccc2C1c1cccc(Br)c1` (configuration not stated), the AC35 in test [1] was 2460 nM. With `COc1ccc(-c2ccc3c(c2)[C@H]2[C@H](CCN2S(=O)(=O)c2ccc(OC)cc2)[C@@H](CO)N3C)cc1`, the AC35 in test [1] was 3420 nM. As for `COc1ccc(C2=Nn3c(nnc3-c3ccccc3)SC2)cc1OC`, in test [2] (at 26 µM (top of the series)), the activity change, negative = cytotoxicity is -5.89% (inactive). Turning to `N#CC1=C(N)Oc2cc(N)ccc2C1c1ccccc1Cl` (configuration not stated), in test [1], the AC35 is 12300 nM. With `O=C(c1cc(Cc2n[nH]c(=O)c3ccccc23)ccc1F)N1CCN(C(=O)C2CC2)CC1`, the AC35 in test [1] is 3970 nM. For the compound `N#Cc1ccc(-c2ccc3c(c2)[C@H]2[C@H](CCN2S(=O)(=O)c2ccccc2F)[C@@H](CO)N3)cc1`, the AC35 in test [1] was 12500 nM. Turning to `Clc1ccc(-c2cnc3ccc(-c4ccccc4)cn23)cc1`, the activity change, negative = cytotoxicity in test [2] (at 6 µM (top of the series)) is 1.33% (inactive).

For `COc1cccc2c1C(=O)c1c(O)c3c(c(O)c1C2=O)C[C@@](O)(C(=O)CO)C[C@@H]3O[C@H]1C[C@H](N)[C@H](O)[C@H](C)O1`, the AC35 in test [1] is less than 50 nM.

As to `CCC(C)(C)C(=O)O[C@H]1C[C@@H](C)C=C2C=C[C@H](C)[C@H](CC[C@@H]3C[C@@H](O)CC(=O)O3)[C@H]21`, the activity change, negative = cytotoxicity in test [2] (at 26 µM (top of the series)) is -7.51% (inactive). On to `CC[C@]1(O)CC2CN(CCc3c([nH]c4ccccc34)[C@@](C(=O)OC)(c3cc4c(cc3OC)N(C=O)[C@H]3[C@@](O)(C(=O)OC)[C@H](OC(C)=O)[C@]5(CC)C=CCN6CC[C@]43[C@@H]65)C2)C1` (some centres not stated), for which, in test [1], the AC35 was less than 1.5 nM. As for `CC1(C)CC(c2nc(-c3ccc4ccc(-c5ccccc5)nc4c3)c3c(N)nccn23)C1`, in test [1], the AC35 is 2020 nM.

Regarding `COc1ccc(S(=O)(=O)N2CC[C@@H]3[C@H](CO)Nc4ccc(-c5ccc(C#N)cc5)cc4[C@@H]32)cc1`, the AC35 in test [1] was 6540 nM. The same measure, in the same setting: next, `N#CC1=C(N)Oc2cc(O)ccc2C1c1cccc(Br)c1` (configuration not stated): 1840 nM. For `COc1ccc(-c2cc(NC(C)=O)c3ncc(-c4ccc(OC)c(OC)c4)n3c2)cc1`, in test [2] (at 26 µM (top of the series)), the activity change, negative = cytotoxicity was -6.5% (inactive).

For `N#CC1=C(N)Oc2cc(N)ccc2C1c1cccc(Br)c1` (configuration not stated), in test [1], the AC35 was 104 nM. On the same count and under the same terms, the value for `CCOC(=O)CCNc1cc(N2CCc3ccccc3CC2)nc(-c2ccccn2)n1` was 14800 nM; that for `CN(C)c1ccc2c(c1)OC(N)=C(C#N)C2c1cccc(F)c1` (configuration not stated) was 17.7 nM; that for `COc1ccccc1-c1nnc2n1N=C(c1ccc(O)c(O)c1)CS2` was 807 nM. As to `CN(C(=O)CCCOc1ccc2[nH]c(=O)ccc2c1)C1CCCCC1`, the AC35 in test [1] was 20700 nM. Still for that read-out and setting: the value for `CC(C)(O)CCc1ccc(O)c2c(=O)c3c(O)c4c(cc3oc12)O[C@H]1OC=C[C@@]41O` was 32.6 nM; that for `COc1cccc(C2C(C#N)=C(N)Oc3cc(N)ccc32)c1` (configuration not stated) was 444 nM; that for `COc1ccc(S(=O)(=O)N2CC[C@@H]3[C@@H](CO)N(C)c4ccc(-c5ccc(F)cc5)cc4[C@@H]32)cc1` was 3080 nM.

`Cc1ccccc1C1C(C#N)=C(N)Oc2cc(N)ccc21` (configuration not stated): the AC35 in test [1] was 13100 nM. In the case of `Cc1cccc(C2C(C#N)=C(N)Oc3cc(N)ccc32)c1` (configuration not stated), the AC35 in test [1] is 486 nM. On the same count and under the same terms, the value for `Nc1ncnc2c1c(-c1cccc(OCc3ccccc3)c1)cn2C1CC(CN2CCCC2)C1` (configuration not stated) was 3760 nM; that for `N#CC1=C(N)Oc2cc(N)ccc2C1c1ccc2ccccc2c1` (configuration not stated) was 11900 nM; that for `COc1cc(C2C(C#N)=C(N)Oc3cc(N(C)C)ccc32)cc2c1OCO2` (configuration not stated) was 82.3 nM.

Turning to `Cc1cc(Nc2cc(N3CCN(C)CC3)nc(Sc3ccc(NC(=O)C4CC4)cc3)n2)n[nH]1`, the AC35 in test [1] was 271 nM. For the compound `CCN(CCO)CCCOc1ccc2c(Nc3cc(CC(=O)Nc4cccc(F)c4)[nH]n3)ncnc2c1`, the activity change, negative = cytotoxicity in test [2] (at 1.6 µM (top of the series)) is -35.3% (inactive). As to `COc1ccc(C2=Nn3c(nnc3-c3ccccc3F)SC2)cc1OC`, the AC35 in test [1] is 3180 nM. As for `COc1ccc(S(=O)(=O)N2CC[C@@H]3[C@@H](CO)Nc4ccc(-c5ccc(C#N)cc5)cc4[C@@H]32)cc1`, the AC35 in test [1] is 4030 nM. Still for that read-out and setting: next, `COc1ccc(C(=O)CC2(O)C(=O)Nc3c(Cl)ccc(Cl)c32)cc1` (configuration not stated): 2250 nM.

For the compound `COc1ccc(NC(=O)Nc2ccc3c(c2)C(=O)N([C@@H](C)CO)C[C@H](C)[C@H](CN(C)Cc2ccc4c(c2)OCO4)O3)cc1`, the activity change, negative = cytotoxicity in test [2] (at 12 µM (top of the series)) was -32.3% (inactive). On to `N#CC1=C(N)Oc2cc(N)ccc2C12C(=O)Nc1ccc(Br)cc12` (configuration not stated), for which the AC35 in test [1] is 18900 nM. Regarding `CC(C)N1c2ccccc2C(c2ccc(F)cc2)C1/C=C/C(O)CC(O)CC(=O)O` (configuration not stated), in test [1], the AC35 was 1420 nM. `COc1ccc(C2CNC(=O)C2)cc1OC1CCCC1` (configuration not stated): the activity change, negative = cytotoxicity in test [2] (at 26 µM (top of the series)) is -1.09% (inactive). As to `COc1ccc(C2C(C#N)=C(N)Oc3cc(N)ccc32)cc1` (configuration not stated), the activity change, negative = cytotoxicity in test [2] (at 26 µM (top of the series)) was -1.79% (inactive).
